Converted amounts (≈) assume the structure as drawn.
How the values were obtained:
[1] = system: A. baumannii (ATCC17978); assay: 50% growth inhibitory concentration (IC50) determination assay; format: cell-based; conditions: Acinetobacter baumannii, ATCC17978, A. baumannii ATCC17978; Iso-Sensitest broth; 0.098 = detection limit
Procedure, shortened: (§1)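 Compounds were two-fold serially diluted (50 to 0.097 μM final) in Iso-Sensitest broth, with ~5×10^5 CFU/mL bacteria. Plates were incubated at 35±2° C and growth followed by OD600 every 20 min over 16 h to derive IC50.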

[2] = Cytotoxicity assay (HepG2, CellTiter-Blue cell viability); format: cell-based; conditions: human; HepG2 cells, 3 days treatment; "*": the detection limit; read-out: CC50
Method: The cytotoxicity of compounds of present invention was assessed by HepG2 assay. HepG2 cells (ATCC HB-8065™) were seeded into 96-well plates (1.2×10^4 cells per well) and treated with compounds for 3 days, cell viability was measured at day 3 post compound treatment using the CellTiter-Blue® Cell Viability Assay (Promega, Cat. No. G8082). 20 μL of Cell titer blue buffer were added to each well of the cells, which were incubated for 3 hours at 37° C., and the fluorescence value was measured by a plate reader (Molecular Device SpectraMax M2). The CC50 value of each compound is plotted with GraphPad Prism using four parameter logistic equation.

[3] = Lyophilisation solubility assay (LYSA); format: physicochemical; conditions: phosphate buffer, pH 6.5, aqueous buffer, thermodynamic from solid, 0.05 M phosphate buffer, HPLC-UV
Procedure, shortened: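 Duplicate samples made from 10 mM DMSO stock. DMSO evaporated and the residue taken up in 0.05 M phosphate buffer, pH 6.5, stirred 1 h and shaken 2 h, then left overnight. Filtrate and its 1/10 dilution quantified by HPLC-UV.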

[4] = system: K. pneumoniae (ATCC10031); assay: 50% growth inhibitory concentration (IC50) determination assay; format: cell-based; conditions: Klebsiella pneumoniae, Iso-Sensitest broth, 0.098 = detection limit
Procedure, shortened: as §1

[5] = system: S. aureus (ATCC29213); assay: as above; format: cell-based; conditions: Staphylococcus aureus, Iso-Sensitest broth, 0.098 = detection limit
Procedure, shortened: as §1

SMILES	IC50 [1] [µM]	solubility thermodynamic [3] [mg/mL]	IC50 [4] [µM]	IC50 [5] [µM]	CC50 at 3 days [2] [µM]
CNc1cc(F)c(F)c2c1[nH]c1ncc(-c3cnc4c(c3)c(=O)c(C(=O)O)cn4C)c(N3CCCC3CN(C)C)c12 (stereo not shown) [Example 1.12]	0.294	0.321 (≈ 572 µM)	< 0.098	0.11	39.2
CNc1cc(F)c(F)c2c1[nH]c1ncc(-c3cnc4c(c3)c(=O)c(C(=O)O)cn4CC(C)(C)N)c(N3CCOCC3)c12 [Example 1.38]	0.883	0.015 (≈ 26 µM)	< 0.098	0.181	> 100
CNc1cc(F)c(F)c2c1[nH]c1ncc(-c3cnc4c(c3)c(=O)c(C(=O)O)cn4C)c(N3CCOC(CN(C)C)C3)c12 (stereo not shown) [Example 1.61]	0.817	0.6 (≈ 1040 µM)	< 0.098	0.139	> 100
CNc1cc(F)cc2c1[nH]c1ncc(-c3cnc4c(c3)c(=O)c(C(=O)O)cn4N3CCOCC3)c(N3CCOCC3)c12 [Example 1.71]	0.923	0.011 (≈ 19.2 µM)	< 0.098	< 0.098	> 100
CNc1cc(F)cc2c1[nH]c1ncc(-c3cnc4c(c3)c(=O)c(C(=O)O)cn4C)c(N3CCC(N(C)C)C3)c12 (stereo not shown) [Example 1.75]	0.108	0.152 (≈ 287 µM)	< 0.098	0.108	68.5
CNc1c(F)c(F)cc2c1[nH]c1ncc(-c3cnc4c(c3)c(=O)c(C(=O)O)cn4C)c(N3CCOC(CN(C)C)C3)c12 (stereo not shown) [Example 1.78]	0.326	0.53 (≈ 918 µM)	< 0.098	0.343	42.5
CNc1cc(F)cc2c1[nH]c1ncc(-c3cnc4c(c3)c(=O)c(C(=O)O)cn4C)c(N3CCOCC(CN(C)C)C3)c12 (stereo not shown) [Example 1.90]	0.411	0.7 (≈ 1220 µM)	< 0.098	0.216	> 100
CNc1cc(F)cc2c1[nH]c1ncc(-c3cnc4c(c3)c(=O)c(C(=O)O)cn4C)c(N3CCCC(CN(C)C)C3)c12 (stereo not shown) [Example 1.94]	0.155	0.301 (≈ 540 µM)	< 0.098	< 0.098	38.7
CCNc1cc(F)c(F)c2c1[nH]c1ncc(-c3cnc4c(c3)c(=O)c(C(=O)O)cn4C)c(N3CCC(CN(C)C)C3)c12 (stereo not shown) [Example 1.106]	0.244	0.019 (≈ 33 µM)	< 0.098	< 0.098	91.3
CNc1cc(F)c(F)c2c1[nH]c1ncc(-c3cnc4c(c3)c(=O)c(C(=O)O)cn4C)c(N3CCN4CCOCC4C3)c12 (stereo not shown) [Example 1.134]	–	0.011 (≈ 19.1 µM)	–	–	> 100
CNc1cc(F)c(F)c2c1[nH]c1ncc(-c3cnc4c(c3)c(=O)c(C(=O)O)cn4C)c(N3CCC(CN(C)C)C3)c12 (stereo not shown) [Example 1.135]	0.153	0.266 (≈ 474 µM)	< 0.098	< 0.098	29.3
CNc1cc(Cl)cc2c1[nH]c1ncc(-c3cnc4c(c3)c(=O)c(C(=O)O)cn4C)c(N3CCOC(CN(C)C)C3)c12 (stereo not shown) [Example 1.138]	0.302	0.091 (≈ 158 µM)	< 0.098	< 0.098	47.3
CCN(CC)CC1CN(c2c(-c3cnc4c(c3)c(=O)c(C(=O)O)cn4C)cnc3[nH]c4c(NC)cc(F)c(F)c4c23)CCO1 (stereo not shown) [Example 1.149]	0.362	0.53 (≈ 875 µM)	< 0.098	< 0.098	66.7
[2H]C([2H])([2H])Nc1cc(F)c(F)c2c1[nH]c1ncc(-c3cnc4c(c3)c(=O)c(C(=O)O)cn4C)c(N3CCC[C@H]3CN(C)C)c12 [Example 1.161]	0.202	> 0.83	< 0.098	0.155	> 100
CNc1cc(F)cc2c1[nH]c1ncc(-c3cnc4c(c3)c(=O)c(C(=O)O)cn4C)c(N3CCC[C@H]3CN(C)C)c12 [Example 1.162]	0.283	0.695 (≈ 1280 µM)	< 0.098	0.162	67.6
CNc1cc(F)c(F)c2c1[nH]c1ncc(-c3cnc4c(c3)c(=O)c(C(=O)O)cn4C)c(N3CC[C@@H](CN4CCCC4)C3)c12 [Example 1.173]	0.216	0.106 (≈ 180 µM)	< 0.098	< 0.098	44.9
CNc1cc(F)c(F)c2c1[nH]c1ncc(-c3cnc4c(c3)c(=O)c(C(=O)O)cn4NC)c(N3CCOC(CN(C)C)C3)c12 (stereo not shown) [Example 1.181]	0.916	0.07 (≈ 118 µM)	< 0.098	0.444	> 100

The next lines start with results.

IC50 [1] [µM]	solubility thermodynamic [3] [mg/mL]	IC50 [4] [µM]	IC50 [5] [µM]	SMILES	CC50 at 3 days [2] [µM]
0.19	0.425 (≈ 687 µM)	–	–	CNc1cc(F)c(F)c2c1[nH]c1ncc(-c3cnc4c(c3)c(=O)c(C(=O)O)cn4NCCOC)c(N3CC[C@H]4CN(C)C[C@H]43)c12 (relative stereo) [Example 5.01, 6-[4-[cis-5-methyl-2,3,3a,4,6,6a-hexahydropyrrolo[2,3-c]pyrrol-1-yl]-5,6-difluoro-8-(methylamino)-9H-pyrido[2,3-b]indol-3-yl]-1-(2-methoxyethylamino)-4-oxo-1,8-naphthyridine-3-carboxylic acid]	43.5
0.423	0.147 (≈ 262 µM)	< 0.098	0.177	CNc1cc(F)c(F)c2c1[nH]c1ncc(-c3cnc4c(c3)c(=O)c(C(=O)O)cn4C)c(N3CCC(N(C)C)CC3)c12 [Example 1.182]	91.7
0.148	0.052 (≈ 101 µM)	< 0.098	< 0.098	CNc1cc(F)cc2c1[nH]c1ncc(-c3cnc4c(c3)c(=O)c(C(=O)O)cn4C)c(N3CCN(C)CC3)c12 [Example 1.184]	28.7
0.236	0.104 (≈ 176 µM)	< 0.098	< 0.098	CNc1cc(F)c(F)c2c1[nH]c1ncc(-c3cnc4c(c3)c(=O)c(C(=O)O)cn4NC)c(N3CCCC(CN(C)C)C3)c12 (stereo not shown) [Example 1.186]	45.6
0.307	0.02 (≈ 36 µM)	< 0.098	0.232	CNc1cc(F)cc2c1[nH]c1ncc(-c3cnc4c(c3)c(=O)c(C(=O)O)cn4C)c(N3CC[C@@H]4C(CCN4C)C3)c12 (stereo partly shown) [Example 1.188]	51.6
0.424	–	< 0.098	< 0.098	CNc1cc(F)cc2c1[nH]c1ncc(-c3cnc4c(c3)c(=O)c(C(=O)O)cn4[C@@H](C)CO)c(N3CCOCC3)c12 [Example 1.216]	> 100
0.542	–	< 0.098	< 0.098	CNc1cc(F)c(F)c2c1[nH]c1ncc(-c3cnc4c(c3)c(=O)c(C(=O)O)cn4C)c(N3CCC4(CCN(C)C4)CC3)c12 [Example 1.231]	37.2
0.104	–	< 0.098	< 0.098	CNc1cc(F)c(F)c2c1[nH]c1ncc(-c3cnc4c(c3)c(=O)c(C(=O)O)cn4C)c(N3CCC4(CCCN4C)C3)c12 (stereo not shown) [Example 1.239]	32.9
0.088	–	< 0.098	< 0.098	CNc1cc(F)c(Cl)c2c1[nH]c1ncc(-c3cnc4c(c3)c(=O)c(C(=O)O)cn4C)c(N3CCOCC3)c12 [Example 1.269]	40.8

Reference: patent US10662203B2, “Pyrido[2,3-b]indole compounds for the treatment and prophylaxis of bacterial infection” (Hoffmann-La Roche Inc., priority 2017, dated 2020)
